Experimental data from patent US8283324B2, “Immunomodulatory and anti-tumour peptides” (Centro de Ingenieria Genetica y Biotecnologia, priority 2006, dated 2012).

How the values were obtained:
IFN-α gene = IFN-α gene expression in human mononuclear cells (RT-PCR); assay type: cell-based; details: 40 μg/ml, 18 h
Experimental: (§1) For this assay, human mononuclear cells were isolated by a Ficoll-Hypaque gradient from a leukocyte concentrate or “Buffy Coat” of a donor. Up to 5×10^6 were seeded in 24-well plates in RPMI 1640 medium supplemented with 10% calf fetal serum. Each peptide was further added at 40 μg/ml in a 0.1 ml volume of RPMI medium and cells were cultured for 18 h at 37° C. and 5% of CO2. Total RNA was extracted by using the TriReagent method. Afterwards, the expressions of IFN-α, IFN-γ and IL-12 genes were determined by the reverse transcription reaction and PCR amplification (RT-PCR kit, Perkin Elmer). Results are shown as relative amounts of messenger RNA normalized against expression levels of the β-actin housekeeping gene.

[1] = competition ELISA for LPS-binding capacity; set-up: species or system E. coli; details: competition with biotinylated LALF32-51 at 0.2 μM; analogous peptides 10 μM to 0.01 μM; FIG. 1A
Experimental: This assay consists on a competition ELISA system (Hardy E., et al (1994) Enhanced ELISA sensitivity using TCA for efficient coating of biologically active LPS or Lipid A to the solid phase. J. Immunol. Meth. Vol. 176:111-116). Polystyrene plates (Costar, USA) were coated with LPS from E. coli 0111:B4 (1 μg/ml) with 0.2% trichloroacetic acid (TCA). Plates were incubated overnight at 37° C. and further washed ten times with 1× phosphate-buffered saline (1×PBS) plus 0.1% tween-20 (washing solution). The binding of analogous peptides to the LPS fixed to the solid surface was evaluated by a competition ELISA with the biotinylated LALF32-51 peptide at 0.2 μM, obtaining a 90% of maximum LPS binding. To estimate the inhibition curves, different concentrations of the analogous peptides were used, from 10 μM to 0.01 μM and the curve of the LALF32-51 peptide as experimental control. The biotinylated LALF32-51 was incubated in the presence of the analogous peptides for 2 h at 37° C. and plates were washed 5 times after that time with washing solution. The biotinylated LALF32-51 bound to LPS was detected by incubating for 45 min at 37° C. with a streptavidin-peroxidase conjugate at a 1:2,000 dilution. Plates were washed 5 times with washing solution and the substrate solution was added (0.05 M citrate-phosphate buffer, pH 5.5, 1 tablet of 3,3′,5,5′-tetramethylbenzidine and 0.025% hydrogen peroxide). After 15 min incubation, the reaction was stopped by adding 2 M sulphuric acid. The absorbance was quantified at 450 nm in a plate reader (Sensident Scan). There is a correlation between optical density values and the LPS-binding capacity of analogous peptides. Analogous peptides with higher LPS-binding capacity show inhibition curves of lower O.D. compared to the inhibition curve of the LALF32-51 peptide.
Analogous peptides with lower LPS-binding capacity present inhibition curves with […], compared to the inhibition curve of the LALF32-51 peptide.
FIG. 1B represents the inhibition percentages of analogous peptides, at a fixed […] concentration, according to their capacity to displace the binding of the biotinylated LALF32-51 (0.2 μM) to LPS adsorbed to the solid surface. % de inhibición={1−(([O.D.]sample−[O.D.]min)/([O.D.]max−[O.D.]min))}×100 [O.D.] sample: Optical density value in the presence of a fixed concentration of analogous peptides; [O.D.] min: ELISA background; [O.D.] max: Optical density value without analogous peptides.

[2] = system: L929 murine fibroblast cells; assay: growth of cells, crystal violet, L929; assay type: cell-based; details: 9 μM to 300 μM, 72 h; FIG. 9
Experimental: For this assay, TC-1, H-125 (non-small human ling cancer cells) and L929) murine fibroblast) cells were seeded in 96-well culture plates (Costar) at a 2×10^4 cells/ml in Dulbecco's modified Eagle's medium (DMEM)(Gibco) supplemented with Calf Fetal Serum (Gibco). After 24 h, the peptides were added to the culture in a range of 9 μM to 300 μM. […] Plates were extensively washed with tap water and plates were read at 562 nm. A pro-apoptotic peptide with a marked anti-proliferative effect in vitro was employed as positive control (Perea, S., et al (2004) Antitumor Effect of a Novel Proapoptotic Peptide that Impairs the Phosphorylation by the Protein Kinase 2 Cancer Research 64: 7127-7129).

IL-12 gene = IL-12 gene expression in human mononuclear cells (RT-PCR); assay type: cell-based; details: 40 μg/ml, 18 h; mRNA normalized against β-actin; FIG. 3A
Experimental: as §1

TC-1 tumor cells = assay: prophylactic schedule of treatment in the TC-1 tumor model; assay type: in vivo; details: 4 mg/kg, two injections before inoculation of TC-1 cells
Experimental: Eight-to-ten weeks-old C57BI/6 female mice were used for this assay (n=10 animals per experimental group). For tumor graft, TC-1 tumor cells, being resuspended in phosphate-buffered saline (PBS). Mice were first injected with the L-2 peptide (4 mg of peptide/kg of body weight). After 7 days, they received a second injection of the same dose; after 14 days of the first peptide injection, animals were inoculated with 50,000 cells in a 200 μl volume by subcutaneous route in the right hind limb. Parameters evaluated for measuring the anti-tumoral effect of the peptide included the time for tumor grafting (FIG. 6A) and the survival of animals (FIG. 6B).

With “HARIKPTFRRLKWKYKGKFW [Peptide L-2, alanine-substituted analogue of LALF 32-51]” the “expression of the IFN-α gene compared to the LALF32-51 peptide” value (IFN-α gene; FIG. 3B) was “more effective”, the “expression of the IFN-α gene” value (IFN-α gene; mRNA normalized against β-actin, FIG. 3A) was “capable of inducing the expression” and the LPS-binding capacity [1] was “lose the capacity to bind LPS”. For the same sequence, the anti-proliferative effect [2] was “no effect was detected”, the “expression of the IL-12 gene” value (IL-12 gene) was “capable of inducing the expression” and the “time for tumor grafting” value (TC-1 tumor cells; FIG. 6A) was “effective to prevent the development of the tumor”. For the same sequence, the survival of animals (TC-1 tumor cells; FIG. 6B) was “increased the survival of the animals”.
